Among the data in PubChem BioAssay (NCI) are GI50 and TGI values, retold here.

Each structure is given as a SMILES string.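 Growth conditions: 96-well plates. Treatment: test compound, 48 hours, 5 concentrations. Analysis: linear interpolation between bracketing concentrations; unreached endpoints set to highest concentration. Here, GI50 denotes the concentration required for 50% inhibition of growth. TGI: concentration producing complete growth inhibition.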 A value given as a limit tells only on which side of the number the result lay.

Holding throughout (test): inhibition of tumour cell growth, NCI panel, 48 h
The subject of test [1] is HCT-116 colon.
The subject of test [2] is OVCAR-3 ovarian.
For test [3], the system named is NCI-H23 lung.
Test [4] relates to ACHN renal.
Test [5] deals with NCI-H460 lung.
The subject of test [6] is SF-539 CNS.
The test system of test [7] is NCI-H522 lung.
The test system of test [8] is EKVX NSCLC.
Test [9] concerns LOX IMVI melanoma.
Test [10] deals with RPMI-8226 leukemia.

For the compound `Cc1ccc(S(=O)(=O)n2cc(-c3nnnn3-c3ccc(Cl)cc3)c(=O)c3ccccc32)cc1`, the GI50 in [1] was 45.9 µM; in test [2], above 100 µM; in test [3], above 100 µM; in [4], above 100 µM; in test [5], 81.9 µM; in [6], above 100 µM. Moreover, the GI50 is 41.3 µM in test [7], above 100 µM in test [8], above 100 µM in test [9] and 21.9 µM in test [10]. Also, the TGI in [1], in test [2], in test [3], in [4], in [5] and in [6] was above 100 µM throughout. For the same compound, the TGI was above 100 µM in test [7], above 100 µM in test [8], above 100 µM in test [9] and 59 µM in test [10].

On to `COc1cc2c3c(c4c5ccccc5[nH]c4c2c(OC)c1OC)C(=O)N(CCN1CCCCC1)C3=O`, for which the GI50 in test [1] was 0.351 µM; in test [2] it was 1.31 µM; in test [3], 1.12 µM; in [4], 0.4 µM; in test [5], 0.654 µM; in test [6], 1.38 µM. Also, the GI50 was 0.794 µM in [7], 1.5 µM in test [8], 1.05 µM in [9] and 1.06 µM in test [10]. Besides, the TGI worked out at 1.46 µM in test [1]; 2.77 µM in test [2]; 2.68 µM in test [3]; 1.6 µM in [4]; 2.1 µM in test [5]; 2.72 µM in test [6]. Further, the TGI in [7] was 2.76 µM; in test [8], 3.42 µM; in [9], 2.45 µM; in [10], 4.17 µM.

As to `CC[C@]12CCCN3CC[C@]4(C(=C(C(=O)OC)C1)Nc1ccccc14)[C@@H]32`, the GI50 was 14.6 µM in test [1]; 17 µM in test [2]; 17.1 µM in [3]; 15.3 µM in test [4]; 18.1 µM in test [5]; 18.2 µM in [6]. For the same compound, the GI50 in test [7] is 13 µM; in test [8] it was 18.9 µM; in [9], 14.3 µM; in [10], 19.4 µM. Moreover, the TGI in [1] is 33 µM; in test [2], 31.1 µM; in [3], 43.8 µM; in [4], 28.6 µM; in [5], 38.3 µM; in test [6], 37.9 µM. The TGI in test [7] is 30.3 µM; in [8] it was 63.1 µM; in test [9], 27.5 µM; in test [10] it was 51.2 µM.

With `COC(=O)C(Cc1nc2ccccc2[nH]c1=O)C(=O)C(=O)Nc1ccc(OC)cc1[N+](=O)[O-]` (centres undefined), the TGI in test [1], in [2], in test [3], in [4], in test [5] and in test [6] was above 100 µM in each case. Moreover, the TGI in test [7], in test [8], in [9] and in test [10] was above 100 µM in each case.

Take `C=C1C(=O)OC2/C=C(\C)C3OC3/C=C(/C(=O)OC)C(OC(C)=O)C(OC(=O)C(C)(O)C(C)OC(C)=O)C12` (centres undefined): the TGI is 6.14 µM in [1]; 13.9 µM in test [2]; 11.2 µM in test [3]; 18.2 µM in test [4]; 13.3 µM in test [5]; 5.43 µM in test [6]. For the same compound, the TGI in [7] is 0.871 µM; in test [8] it was 42.9 µM; in test [9], 3.61 µM; in test [10] it was 7.9 µM.

In the case of `COC(=O)C1C2CCCN2OC1(C)CO` (centres undefined), the TGI in test [1], in [2], in test [3], in [4], in test [5] and in test [6] was above 100 µM throughout. Also, the TGI in [7], in test [8], in test [9] and in test [10] was above 100 µM each time.

For `COc1cc(C2C(C#N)=C(N)Oc3cc(O)ccc32)cc(OC)c1OC` (centres undefined), the GI50 is 0.428 µM in test [1]; 0.317 µM in [2]; 0.62 µM in test [3]; 0.882 µM in [4]; 0.382 µM in test [5]; 0.333 µM in [6]. In addition, the GI50 in [7] was 0.281 µM; in [8] it was 6.49 µM; in test [9], 0.546 µM; in test [10] it was 0.65 µM. The TGI in test [1] was above 100 µM; in test [2] it was 0.851 µM; in test [3] it was above 100 µM; in [4], above 100 µM; in test [5], above 75.2 µM; in test [7], 3.85 µM. The TGI in test [8] was above 100 µM; in test [9], above 100 µM; in test [10], above 89.6 µM.

With `CC/C=C\C/C=C\C[C@H]1C/C=C2/C(=O)C=C[C@H]2C/C=C\CCC(=O)O1`, the GI50 in test [1] was 3.63 µM; in [2], 2.11 µM; in test [3], 3.03 µM; in test [4] it was 2.6 µM; in test [5], 3.1 µM; in test [6], 4.44 µM. The GI50 in test [7] is 1.83 µM; in test [8] it was 3.81 µM; in test [9], 2.34 µM; in test [10], 1.29 µM. Moreover, the TGI in test [1] is above 14.3 µM; in [2], 5.01 µM; in test [3] it was 8.31 µM; in [4], 5.2 µM; in test [5], 7.96 µM; in test [6] it was above 14.3 µM. The TGI in [7] is 5.32 µM; in test [8], above 14.3 µM; in test [9], 4.78 µM; in test [10], 7.45 µM.

Consider `COc1cc(NC(N)=NCCC(C)(C)c2ccc(C(F)(F)F)cc2)ncc1C#N`, for which the GI50 in [1] is 1.51 µM; in test [2] it was 1.79 µM; in test [3], 1.53 µM; in test [4], 1.65 µM; in test [5], 1.83 µM; in [6] it was 1.87 µM. For the same compound, the GI50 in test [7] is 1.44 µM; in test [8], 1.4 µM; in test [9], 1.58 µM; in [10], 1.27 µM. Further, the TGI in test [1] was found to be 2.9 µM; in test [2] it was 3.5 µM; in test [3], 3.15 µM; in test [4], 3.01 µM; in [5], 3.55 µM; in [6] it was 3.33 µM. In addition, the TGI was 2.97 µM in test [7], 2.87 µM in test [8], 2.92 µM in test [9] and 3.3 µM in [10].
